This passage reports Ki results from US5686418A, “Prolonging survival of transplanted pancreatic cells” (Biomeasure Incorporated, priority 1996, dated 1997).

Read-outs that look alike come from different tables or passages of the source. Where a SMILES comes first, the peptide text is derived from it. Bridges are numbered along the chain shown (N, C = ends). [ ]: non-standard residue; d: D form.

The target of test [1] is human SSTR-4 (Homo sapiens, UniProt P31391). The test can be described thus: Somatostatin receptor binding assay, hSSTR-4. The source says: (§1) The human SSTR-1, SSTR-2, SSTR-3, SSTR-4, and SSTR-5 cDNA clones have been described (SSTR-1 and SSTR-2 in Yamada, Y., et al., Proc. Natl. Acad. Sci. USA., 89:251-255 (1992); SSTR-3 in Yamade, et al., Mol. Endocrinol. 6:2136-2142 (1993); and SSTR-4 and SSTR-5 in Yamada, et al., Biochem. Biophys. Res. Commun. 195:844-852 (1993)) and are also available from American Type Culture Collection (ATCC, Rockville, Md.) (ATCC Nos. 79044 (SSTR-1), 79046 (SSTR-2), and 79048 (SSTR-3)). […] Restriction endonucleases are available from New England Biolabs (Beverly, Mass.). This cDNA fragment was inserted into the mammalian expression vector, pCMV (Russell, D., et al., J. Biol. Chem., 264:8222-8229 (1989)), using standard molecular biology techniques (see e.g., Maniatis, T., et al., Molecular Cloning--A Laboratory Manual, Cold Spring Harbor Laboratory, 1982) to produce the expression plasmid, pCMV-human SSTR-1 through pCMV-human SSTR-5. Other mammalian expression vectors include pcDNA1/Amp (Invitrogen, Sandlesy, Calif.). The expression plasmids were introduced into the suitable bacterial host, E. Coli HB101 (Stratagene, La Jolla, Calif.) and plasmid DNAs, for transfection, were prepared on Cesium Chloride gradients.
Sequence of human SSTR-4 (P31391 whole entry, the tested form may be a part): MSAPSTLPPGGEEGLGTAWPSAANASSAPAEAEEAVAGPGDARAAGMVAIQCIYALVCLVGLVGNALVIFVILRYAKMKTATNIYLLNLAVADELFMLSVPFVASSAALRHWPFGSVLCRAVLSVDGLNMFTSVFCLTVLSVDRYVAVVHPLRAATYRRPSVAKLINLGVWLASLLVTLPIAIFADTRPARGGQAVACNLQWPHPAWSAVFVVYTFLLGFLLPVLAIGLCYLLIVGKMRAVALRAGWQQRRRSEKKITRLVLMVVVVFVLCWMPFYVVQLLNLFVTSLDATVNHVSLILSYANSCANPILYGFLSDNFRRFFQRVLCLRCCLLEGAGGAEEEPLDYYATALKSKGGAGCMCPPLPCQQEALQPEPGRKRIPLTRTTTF
(§2) CHO-K1 (ovary, Chinese hamster) cells were obtained from ATCC (ATCC No. CCL 61). […]

The target in test [2] is human SSTR-3 (Homo sapiens, UniProt P32745). Put plainly: Somatostatin receptor binding assay, hSSTR-3.
Sequence of human SSTR-3 (P32745 whole entry): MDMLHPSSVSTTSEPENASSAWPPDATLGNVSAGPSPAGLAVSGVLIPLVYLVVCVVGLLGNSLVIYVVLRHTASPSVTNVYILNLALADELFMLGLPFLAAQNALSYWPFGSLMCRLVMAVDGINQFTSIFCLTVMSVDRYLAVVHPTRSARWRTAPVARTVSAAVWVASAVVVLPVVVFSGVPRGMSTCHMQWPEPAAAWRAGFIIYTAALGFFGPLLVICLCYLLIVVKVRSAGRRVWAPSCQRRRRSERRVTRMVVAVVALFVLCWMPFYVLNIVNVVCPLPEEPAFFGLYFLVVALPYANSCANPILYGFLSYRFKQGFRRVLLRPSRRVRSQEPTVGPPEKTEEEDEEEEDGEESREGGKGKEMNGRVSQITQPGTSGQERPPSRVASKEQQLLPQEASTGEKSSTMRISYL
Excerpt: as §1, §2

Test [3] deals with human SSTR-5 (Homo sapiens, UniProt P35346). Put plainly: Somatostatin receptor binding assay, hSSTR-5.
Sequence of human SSTR-5 (P35346 whole entry): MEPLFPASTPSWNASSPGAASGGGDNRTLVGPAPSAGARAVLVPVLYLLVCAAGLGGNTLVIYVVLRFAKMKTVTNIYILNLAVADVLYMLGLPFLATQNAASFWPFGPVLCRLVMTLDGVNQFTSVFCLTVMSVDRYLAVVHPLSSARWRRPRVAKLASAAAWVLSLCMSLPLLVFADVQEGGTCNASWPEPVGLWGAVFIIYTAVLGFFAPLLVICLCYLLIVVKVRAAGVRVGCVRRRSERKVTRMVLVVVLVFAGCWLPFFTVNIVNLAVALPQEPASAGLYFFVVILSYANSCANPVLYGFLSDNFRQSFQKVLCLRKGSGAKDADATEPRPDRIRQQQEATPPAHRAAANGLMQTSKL
Excerpt: as §1, §2

In test [4] the target is human SSTR-2 (Homo sapiens, UniProt P30874). Put plainly: Somatostatin receptor binding assay, hSSTR-2.
Sequence of human SSTR-2 (P30874 whole entry): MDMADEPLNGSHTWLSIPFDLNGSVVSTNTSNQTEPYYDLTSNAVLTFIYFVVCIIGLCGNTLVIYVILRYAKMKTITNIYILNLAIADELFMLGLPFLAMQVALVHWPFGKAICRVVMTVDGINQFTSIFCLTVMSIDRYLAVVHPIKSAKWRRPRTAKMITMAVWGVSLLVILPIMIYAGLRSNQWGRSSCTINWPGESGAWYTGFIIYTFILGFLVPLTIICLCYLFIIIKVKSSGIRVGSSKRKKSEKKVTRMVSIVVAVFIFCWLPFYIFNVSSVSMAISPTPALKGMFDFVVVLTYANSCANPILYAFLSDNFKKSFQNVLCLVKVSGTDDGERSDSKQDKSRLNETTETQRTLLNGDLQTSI
Excerpt: as §1, §2

Test [5] deals with human SSTR-1 (Homo sapiens, UniProt P30872). Put plainly: Somatostatin receptor binding assay, hSSTR-1.
Sequence of human SSTR-1 (P30872 whole entry): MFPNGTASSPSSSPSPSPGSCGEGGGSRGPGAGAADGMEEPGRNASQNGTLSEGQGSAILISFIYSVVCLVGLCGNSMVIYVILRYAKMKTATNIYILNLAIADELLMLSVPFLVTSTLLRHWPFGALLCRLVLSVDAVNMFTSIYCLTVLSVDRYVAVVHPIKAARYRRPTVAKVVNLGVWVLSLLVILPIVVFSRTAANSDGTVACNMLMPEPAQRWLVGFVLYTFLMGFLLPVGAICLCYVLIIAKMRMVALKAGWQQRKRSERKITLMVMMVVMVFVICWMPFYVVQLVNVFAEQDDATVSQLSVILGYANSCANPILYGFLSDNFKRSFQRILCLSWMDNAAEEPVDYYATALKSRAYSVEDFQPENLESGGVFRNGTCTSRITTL
Excerpt: as §1, §2

As for `C[C@@H](O)[C@H](NC(=O)[C@H](Cc1ccccc1)NC(=O)[C@@H](NC(=O)[C@H](CCCCN)NC(=O)[C@@H](Cc1c[nH]c2ccccc12)NC(=O)[C@H](Cc1ccccc1)NC(=O)[C@H](Cc1ccccc1)NC(=O)[C@H](N)Cc1ccccc1)[C@@H](C)O)C(N)=O` [BIM-23052, H-D-Phe-Phe-Phe-D-Trp-Lys-Thr-Phe-Thr-NH2] (H-[dF]FF[dW]KTFT-NH2), the inhibition constant Ki in test [1] came to 126 nM; in test [2], 5.59 nM; in test [3], 1.23 nM; in test [4], 5.77 nM; in test [5], 97.6 nM.

As for `C[C@@H](O)[C@@H]1NC(=O)[C@H](CCCCN)NC(=O)[C@@H](Cc2c[nH]c3ccccc23)NC(=O)[C@H](Cc2ccccc2)NC(=O)[C@H](Cc2ccccc2)NC(=O)[C@@H](N)CSSC[C@@H](C(N)=O)NC(=O)[C@H](Cc2ccccc2)NC1=O` [BM-23268, H-Cys-Phe-Phe-D-Trp-Lys-Thr-Phe-Cys-NH2] (H-CFF[dW]KTFC-NH2; disulfide 1-8), the Ki in test [2] was determined as 61.6 nM; in test [3] (read-out: Ki hSSTR-5), 0.376 nM; in test [4], 6.84 nM; in test [5], 12.3 nM.

A word on the Ki: it is the dissociation constant of the complex between target and ligand, obtained from inhibition or displacement.
